According to ChEMBL document CHEMBL1201862, “PubChem BioAssay data set” (2004):
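Each compound was tested at five concentrations against cells in 96-well plates for 48 hours. The concentration for 50% growth inhibition is given as GI50.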 Activity calls are given as the source filed them. Rule as the data show it: active = GI50 up to about 1.1 µM and inactive = higher.

Legend:
Assay in all cases: inhibition of tumour cell growth, NCI panel, 48 h
[1] = tested on: DLD-1
[2] = tested on: ACHN
[3] = tested on: LOX IMVI
[4] = tested on: HOP-92
[5] = tested on: SK-OV-3
[6] = tested on: RXF 393
[7] = tested on: RPMI-8226
[8] = tested on: RXF 631
[9] = tested on: OVCAR-5
[10] = tested on: SF-268
[11] = tested on: HL-60
[12] = tested on: U-251
[13] = tested on: MOLT-4
[14] = tested on: NCI-H460
[15] = tested on: EKVX
[16] = tested on: CCRF-CEM
[17] = tested on: UACC-62
[18] = tested on: COLO 205
[19] = tested on: OVCAR-4
[20] = tested on: A549
[21] = tested on: SF-295
[22] = tested on: NCI-H522
[23] = tested on: K562
[24] = tested on: HT-29
[25] = tested on: UACC-257
[26] = tested on: SF-539
[27] = tested on: XF498
[28] = tested on: OVCAR-8
[29] = tested on: HCT-15
[30] = tested on: SN12C
[31] = tested on: HOP-62
[32] = tested on: SNB-78
[33] = tested on: TK-10
[34] = tested on: A498
[35] = tested on: SK-MEL-28
[36] = tested on: IGROV-1
[37] = tested on: KM-20L2
[38] = tested on: LXFL 529
[39] = tested on: M19-MEL
[40] = tested on: KM12
[41] = tested on: HCC 2998
[42] = tested on: OVCAR-3
[43] = tested on: SK-MEL-5
[44] = tested on: SK-MEL-2
[45] = tested on: SNB-75
[46] = tested on: SW-620
[47] = tested on: NCI-H226
[48] = tested on: Malme-3M
[49] = tested on: M14
[50] = tested on: 786-0
[51] = tested on: CAKI-1
[52] = tested on: UO-31
[53] = tested on: NCI-H23

For O=c1c2cc(Br)ccc2nc(CCl)n1-c1ccc(O)c([N+](=O)[O-])c1, the GI50 [1] was 17.7 µM (inactive), the GI50 [2] was 26.4 µM (inactive) and the GI50 [3] was 19 µM (inactive). The GI50 [4] was 29.2 µM (inactive), the GI50 [5] was 37.8 µM (inactive) and the GI50 [6] was 12.9 µM (inactive). For the same molecule, the GI50 [7] was 25 µM (inactive), the GI50 [8] was > 10 µM (inactive) and the GI50 [9] was 63.5 µM (inactive). The GI50 [10] was 20.8 µM (inactive), the GI50 [11] was 23.2 µM (inactive) and the GI50 [12] was 38.9 µM (inactive). The GI50 [13] was 23.1 µM (inactive), the GI50 [14] was 34.1 µM (inactive) and the GI50 [15] was 17.5 µM (inactive). The GI50 [16] was 22.4 µM (inactive), the GI50 [17] was 26.6 µM (inactive) and the GI50 [18] was 20.3 µM (inactive). The GI50 [19] was 18.7 µM (inactive), the GI50 [20] was 22.4 µM (inactive) and the GI50 [21] was 16.3 µM (inactive). The GI50 [22] was 18.8 µM (inactive), the GI50 [23] was 22.4 µM (inactive) and the GI50 [24] was 27.7 µM (inactive). The GI50 [25] was 19.1 µM (inactive), the GI50 [26] was 19.2 µM (inactive) and the GI50 [27] was 15.4 µM (inactive). For the same molecule, the GI50 [28] was 19.9 µM (inactive), the GI50 [29] was 19.7 µM and the GI50 [30] was 18.8 µM (inactive). The GI50 [31] was 20.9 µM (inactive), the GI50 [32] was 22.9 µM (inactive) and the GI50 [33] was 18.7 µM (inactive). The GI50 [34] was 20.1 µM (inactive), the GI50 [35] was 17.6 µM (inactive) and the GI50 [36] was 24 µM (inactive). The GI50 [37] was 33 µM (inactive), the GI50 [38] was 20.9 µM (inactive) and the GI50 [39] was 19.8 µM (inactive). The GI50 [40] was 19 µM (inactive), the GI50 [41] was 19.9 µM (inactive) and the GI50 [42] was 18.2 µM (inactive). For the same molecule, the GI50 [43] was 15.9 µM (inactive), the GI50 [44] was 16 µM (inactive) and the GI50 [45] was 20.8 µM (inactive). For the same molecule, the GI50 [46] was 19.2 µM (inactive), the GI50 [47] was 14.5 µM (inactive) and the GI50 [48] was 17.5 µM (inactive). For the same molecule, the GI50 [49] was 22.3 µM (inactive), the GI50 [50] was 16.1 µM (inactive) and the GI50 [51] was 21.7 µM (inactive). For the same molecule, the GI50 [52] was 15.5 µM (inactive) and the GI50 [53] was 16.7 µM (inactive).
